Assay results taken from ChEMBL document CHEMBL3046750, “Synthesis, characterization and antimicrobial activity of novel ethyl 1-(N-substituted)-5-phenyl-1H-pyrazole-4-carboxylate derivatives” (2012).
In brackets after ≈: the same amount, converted by molar mass. Activity calls are given as the source filed them. The calls are words filed in the database; no cut-off is given here.

Legend:
Pseudomonas aeruginosa [1] = experiment: Antibacterial activity against Pseudomonas aeruginosa after 16 hr by serial dilution method; assay type: functional
Bacillus subtilis [2] = experiment: Antibacterial activity against Bacillus subtilis after 16 hr by serial dilution method; assay type: functional
Staphylococcus aureus [3] = experiment: Antibacterial activity against Staphylococcus aureus after 16 hr by serial dilution method; assay type: functional
Escherichia coli [4] = experiment: Antibacterial activity against Escherichia coli after 16 hr by serial dilution method; assay type: functional
Staphylococcus aureus [5] = experiment: Antibacterial activity against Staphylococcus aureus at 1.6125 ug/ml after 16 hr by serial dilution method; assay type: functional, organism-based
Pseudomonas aeruginosa [6] = experiment: Antibacterial activity against Pseudomonas aeruginosa at 1.6125 ug/ml after 16 hr by serial dilution method; assay type: functional, organism-based
Bacillus subtilis [7] = experiment: Antibacterial activity against Bacillus subtilis at 1.6125 ug/ml after 16 hr by serial dilution method; assay type: functional, organism-based
Escherichia coli [8] = experiment: Antibacterial activity against Escherichia coli at 1.6125 ug/ml after 16 hr by serial dilution method; assay type: functional, organism-based

MIC (Pseudomonas aeruginosa [1])	MIC (Bacillus subtilis [2])	MIC (Staphylococcus aureus [3])	MIC (Escherichia coli [4])	SMILES	Activity (Staphylococcus aureus [5])	Activity (Pseudomonas aeruginosa [6])	Activity (Bacillus subtilis [7])	Activity (Escherichia coli [8])
1.61 µg/mL (≈ 4.34 µM)	1.61 µg/mL (≈ 4.34 µM)	3.12 µg/mL (≈ 8.42 µM)	1.61 µg/mL (≈ 4.34 µM)	CCOC(=O)c1cnn(-c2ccccc2Br)c1-c1ccccc1	–	–	–	–
1.61 µg/mL (≈ 5.39 µM)	3.12 µg/mL (≈ 10.4 µM)	3.12 µg/mL (≈ 10.4 µM)	1.61 µg/mL (≈ 5.39 µM)	CCOC(=O)c1cnn(C2CCNCC2)c1-c1ccccc1	–	–	–	–
–	–	–	–	CCOC(=O)c1cnn(-c2ccc(C)cc2)c1-c1ccccc1	inactive	inactive	inactive	inactive
1.61 µg/mL (≈ 5.2 µM)	3.12 µg/mL (≈ 10.1 µM)	6.25 µg/mL (≈ 20.1 µM)	1.61 µg/mL (≈ 5.2 µM)	CCOC(=O)c1cnn(-c2ccc(F)cc2)c1-c1ccccc1	–	–	–	–
3.25 µg/mL (≈ 9 µM)	1.61 µg/mL (≈ 4.47 µM)	1.61 µg/mL (≈ 4.47 µM)	1.61 µg/mL (≈ 4.47 µM)	CCOC(=O)c1cnn(-c2ccc(Cl)cc2Cl)c1-c1ccccc1	–	–	–	–
6.25 µg/mL (≈ 20.9 µM)	6.25 µg/mL (≈ 20.9 µM)	6.25 µg/mL (≈ 20.9 µM)	12.5 µg/mL (≈ 41.9 µM)	CCOC(=O)c1cnn(C2CCCCC2)c1-c1ccccc1	–	–	–	–
25 µg/mL (≈ 74.3 µM)	–	50 µg/mL (≈ 149 µM)	–	CCOC(=O)c1cnn(-c2ccc(C(=O)O)cc2)c1-c1ccccc1	–	–	inactive	inactive
–	–	–	–	CCOC(=O)c1cnn(C(C)(C)C)c1-c1ccccc1	inactive	inactive	inactive	inactive
12.5 µg/mL (≈ 35.9 µM)	12.5 µg/mL (≈ 35.9 µM)	–	–	CCOC(=O)c1cnn(-c2ccc(C(C)(C)C)cc2)c1-c1ccccc1	inactive	–	–	inactive
3.12 µg/mL (≈ 9.1 µM)	3.12 µg/mL (≈ 9.1 µM)	3.12 µg/mL (≈ 9.1 µM)	6.25 µg/mL (≈ 18.2 µM)	CCOC(=O)c1cnn(-c2ccc3ccccc3n2)c1-c1ccccc1	–	–	–	–
1.61 µg/mL (≈ 4.48 µM)	1.61 µg/mL (≈ 4.48 µM)	3.12 µg/mL (≈ 8.67 µM)	1.61 µg/mL (≈ 4.48 µM)	CCOC(=O)c1cnn(-c2ccc(C(F)(F)F)cc2)c1-c1ccccc1	–	–	–	–
–	–	–	–	CCOC(=O)c1cnn(C)c1-c1ccccc1	inactive	inactive	inactive	inactive

SMILES	MIC (Pseudomonas aeruginosa [1])	MIC (Bacillus subtilis [2])	MIC (Staphylococcus aureus [3])	MIC (Escherichia coli [4])	Activity (Staphylococcus aureus [5])	Activity (Pseudomonas aeruginosa [6])	Activity (Bacillus subtilis [7])	Activity (Escherichia coli [8])
CO/N=C(\C(=O)N[C@@H]1C(=O)N2C(C(=O)O)=C(CSc3nc(=O)c(O)nn3C)CS[C@H]12)c1csc(N)n1 [CEFTRIAXONE]	1.61 µg/mL (≈ 2.91 µM)	1.61 µg/mL (≈ 2.91 µM)	3.12 µg/mL (≈ 5.63 µM)	1.61 µg/mL (≈ 2.91 µM)	–	–	–	–
